{"source": "paper PMC3618488", "about": "(Chemical communications (Cambridge, England), 2013)", "molecular_target": "Pseudomonas aeruginosa elastase (LasB) (Pseudomonas aeruginosa, UniProt P14756)", "sequence (P14756 198-498)": "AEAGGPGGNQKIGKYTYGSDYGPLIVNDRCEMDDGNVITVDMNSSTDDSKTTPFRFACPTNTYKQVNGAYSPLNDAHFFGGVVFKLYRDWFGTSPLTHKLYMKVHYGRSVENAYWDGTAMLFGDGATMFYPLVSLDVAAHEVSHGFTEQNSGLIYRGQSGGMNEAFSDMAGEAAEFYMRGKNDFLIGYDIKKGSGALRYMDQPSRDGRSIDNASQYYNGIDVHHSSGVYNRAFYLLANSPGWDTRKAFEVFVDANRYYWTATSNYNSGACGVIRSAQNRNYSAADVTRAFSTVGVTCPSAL", "assay": "biochemical", "format": "biochemical", "conditions": "for fold reduction in potency relative to tropolone (3): against LasB, compared with 3", "note": "Read-outs that look alike come from different tables or passages of the source."}
{"compound": "CC(C)c1cccc(=O)c(O)c1", "note": "[compound 5, β-thujaplicin]", "values": [{"measurement": "IC50", "result": "1340 ± 370", "unit": "µM"}, {"measurement": "fold reduction in potency relative to tropolone (3)", "result": "~ 3 fold"}]}
{"compound": "Nc1ccc(O)c(=O)cc1", "note": "[compound 6, 5-aminotropolone]", "values": [{"measurement": "IC50", "setting": "read-out: IC50 for LasB inhibition", "result": "180 ± 1", "unit": "µM"}]}
{"compound": "acetyltropolone [compound 4]", "values": [{"measurement": "fold reduction in potency relative to tropolone (3)", "result": "~ 3 fold"}]}
